Data reported in ChEMBL document CHEMBL1201862, “PubChem BioAssay data set” (2004).
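Compound exposure: 48 hours, 5 concentrations, 96-well plates. Abbreviation: GI50, concentration required for 50% inhibition of growth.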 Active and inactive are the calls of the source. Cut-off read from the data, not from the text of the source: active = GI50 up to about 1.1 µM and inactive = higher.

Key:
Experiment in all cases: DTP human tumour cell line panel, 48 h
OVCAR-5 = test system: OVCAR-5
SK-MEL-5 = test system: SK-MEL-5
A549 = test system: A549
UO-31 = test system: UO-31
UACC-257 = test system: UACC-257
SK-OV-3 = test system: SK-OV-3
HCC 2998 = test system: HCC 2998
OVCAR-3 = test system: OVCAR-3
Malme-3M = test system: Malme-3M
MOLT-4 = test system: MOLT-4
HOP-92 = test system: HOP-92
UACC-62 = test system: UACC-62
M14 = test system: M14
ACHN = test system: ACHN
U-251 = test system: U-251
SN12C = test system: SN12C
SK-MEL-28 = test system: SK-MEL-28
LOX IMVI = test system: LOX IMVI

Measured: GI50

Cc1ccccc1C(=O)c1c(O)c2c(c(O)c1Br)CCCC2
inactive: OVCAR-5 20 µM | SK-MEL-5 18.5 µM | A549 23.2 µM | UO-31 17.5 µM | UACC-257 14.7 µM | SK-OV-3 21.8 µM | HCC 2998 19.5 µM | OVCAR-3 13.8 µM | Malme-3M 11.5 µM | MOLT-4 6.14 µM | HOP-92 23.2 µM | UACC-62 15.1 µM | M14 14 µM | ACHN 17.9 µM | U-251 16.7 µM | SN12C 18.1 µM

O=c1nc(-c2ccccc2)scc1-c1ccccc1
inactive: SK-MEL-5 > 100 µM | SK-MEL-28 > 100 µM | A549 > 100 µM | UO-31 > 100 µM | UACC-257 > 100 µM | SK-OV-3 > 100 µM | OVCAR-3 > 100 µM | Malme-3M > 100 µM | MOLT-4 > 100 µM | HOP-92 67.9 µM | UACC-62 35.5 µM | M14 > 100 µM | ACHN > 100 µM | U-251 98.6 µM | SN12C > 100 µM

O=C(O)COc1ccccc1C(=O)Nc1ccccc1
inactive: OVCAR-5 > 100 µM | SK-MEL-5 > 100 µM | SK-MEL-28 > 100 µM | A549 > 100 µM | UO-31 > 100 µM | UACC-257 > 100 µM | SK-OV-3 > 100 µM | LOX IMVI > 100 µM | OVCAR-3 > 100 µM | Malme-3M > 100 µM | MOLT-4 > 100 µM | HOP-92 > 100 µM | UACC-62 > 100 µM | M14 > 100 µM | ACHN > 100 µM | U-251 > 100 µM | SN12C > 100 µM

CC(C)C(N)C(=O)NC(CCC(=O)NCCCCC(N)C(=O)NCCCNc1ccc([N+](=O)[O-])c2[nH]c3ccccc3c(=O)c12)C(N)=O (stereo unspecified)
inactive: OVCAR-5 > 100 µM | SK-MEL-5 > 100 µM | SK-MEL-28 > 100 µM | A549 27.3 µM | UO-31 24.4 µM | UACC-257 > 100 µM | SK-OV-3 44.3 µM | HCC 2998 40.2 µM | LOX IMVI 21 µM | OVCAR-3 > 100 µM | HOP-92 24.4 µM | UACC-62 25.2 µM | M14 75.3 µM | ACHN 40.6 µM | U-251 26.7 µM

C=C1CCC23CC(CC[C@@H]2[C@@]12C[C@@H](c1ccoc1)OC2=O)OC3=O (stereo partly specified)
inactive: OVCAR-5 > 100 µM | SK-MEL-5 > 100 µM | A549 > 100 µM | UO-31 > 100 µM | UACC-257 > 100 µM | SK-OV-3 > 100 µM | HCC 2998 > 100 µM | OVCAR-3 > 100 µM | Malme-3M > 100 µM | MOLT-4 > 100 µM | HOP-92 > 100 µM | UACC-62 > 100 µM | M14 > 100 µM | ACHN > 100 µM | U-251 > 100 µM | SN12C > 100 µM

Cc1c(/C=N\NC(=S)NCCNC(=S)N/N=C\c2c(C)n(C)n(-c3ccccc3)c2=O)c(=O)n(-c2ccccc2)n1C
inactive: OVCAR-5 > 100 µM | SK-MEL-5 > 100 µM | A549 > 100 µM | UO-31 > 100 µM | UACC-257 > 100 µM | SK-OV-3 > 100 µM | HCC 2998 > 100 µM | OVCAR-3 > 100 µM | Malme-3M > 100 µM | MOLT-4 > 100 µM | HOP-92 > 100 µM | UACC-62 > 100 µM | M14 > 100 µM | ACHN > 100 µM | U-251 > 100 µM

CCOC(=O)C1=C(C)N(NC(N)=O)C(C)(O)C12CCOC2=O (stereo unspecified)
inactive: OVCAR-5 > 100 µM | SK-MEL-5 > 100 µM | SK-MEL-28 > 100 µM | A549 > 100 µM | UO-31 > 100 µM | UACC-257 > 100 µM | SK-OV-3 > 100 µM | HCC 2998 > 100 µM | LOX IMVI > 100 µM | OVCAR-3 > 100 µM | Malme-3M > 100 µM | MOLT-4 > 100 µM | UACC-62 > 100 µM | M14 > 100 µM | ACHN > 100 µM | U-251 > 100 µM | SN12C > 100 µM
